IC50 and Ki data for four compounds are collected here from patent publication US20240010634A1, “PYRIMIDINYL SULFONAMIDES AS INHIBITORS OF ACK1/TNK2 TYROSINE KINASE” (H. LEE MOFFITT CANCER CENTER AND RESEARCH INSTITUTE, INC., priority 2020, published 2024).

Experiment [1] relates to ACK1 autophosphorylation. The settings on record: heregulin-stimulated LNCaP cells; cited from earlier work.
In experiment [2] the test system is AR phosphorylation of Tyr-267. As to conditions: heregulin-stimulated LNCaP cells; cited from earlier work.
Experiment [3] deals with T1, ACK1 (Homo sapiens (Human), UniProt Q07912). The experiment can be described thus: ACK1 IC50 (Table 1, method not described). Type of experiment: biochemical.
T1 sequence (Q07912 whole entry): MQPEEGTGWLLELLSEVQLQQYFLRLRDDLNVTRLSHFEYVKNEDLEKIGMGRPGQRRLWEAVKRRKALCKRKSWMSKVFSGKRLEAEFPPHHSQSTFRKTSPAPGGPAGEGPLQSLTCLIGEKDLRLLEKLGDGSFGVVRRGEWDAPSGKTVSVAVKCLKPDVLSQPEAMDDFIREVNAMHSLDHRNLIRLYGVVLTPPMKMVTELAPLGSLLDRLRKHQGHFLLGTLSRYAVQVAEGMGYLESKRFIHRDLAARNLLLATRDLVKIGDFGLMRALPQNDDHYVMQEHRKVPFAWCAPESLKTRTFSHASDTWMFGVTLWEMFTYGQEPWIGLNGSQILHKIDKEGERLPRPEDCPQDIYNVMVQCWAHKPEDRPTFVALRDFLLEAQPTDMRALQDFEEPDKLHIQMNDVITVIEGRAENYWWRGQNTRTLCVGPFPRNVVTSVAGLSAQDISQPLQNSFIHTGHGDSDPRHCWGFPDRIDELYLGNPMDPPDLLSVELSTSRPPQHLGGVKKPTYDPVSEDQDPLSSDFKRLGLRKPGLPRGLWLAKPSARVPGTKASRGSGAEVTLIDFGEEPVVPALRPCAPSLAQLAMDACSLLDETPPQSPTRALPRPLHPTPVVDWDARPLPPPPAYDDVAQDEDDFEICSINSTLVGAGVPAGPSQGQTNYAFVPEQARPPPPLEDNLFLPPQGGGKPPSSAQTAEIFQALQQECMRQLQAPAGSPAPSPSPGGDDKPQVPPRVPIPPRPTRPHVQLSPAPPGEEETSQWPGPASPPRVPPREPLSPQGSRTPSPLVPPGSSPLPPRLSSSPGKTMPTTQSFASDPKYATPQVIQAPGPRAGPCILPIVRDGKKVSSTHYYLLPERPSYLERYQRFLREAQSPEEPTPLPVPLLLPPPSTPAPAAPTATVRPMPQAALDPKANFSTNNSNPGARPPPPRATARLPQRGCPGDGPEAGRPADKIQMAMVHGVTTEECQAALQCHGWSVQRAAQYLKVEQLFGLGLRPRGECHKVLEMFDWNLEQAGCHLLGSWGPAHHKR
Experiment [4] addresses T1, ACK1. The experiment can be described thus: Reaction Biology 33P Hotspot assay. It counts as biochemical.
In experiment [5] the target is T1, ACK1. As to conditions: cited from earlier work.
Experiment [6] relates to cell line which is dependent upon ACK1. The settings on record: read-out: IC50, growth of a cell line dependent upon ACK1; cited from earlier work.

The structures appear in SMILES notation.

As to `Cc1nc(Nc2ncc(C(=O)Nc3c(C)cccc3Cl)s2)cc(N2CCN(CCO)CC2)n1` [Dasatinib], the IC50 in experiment [1] and in experiment [2] was < 5 nM throughout. As to `COc1cc(N2CCN(C)CC2)ccc1Nc1ncc(C)c(Nc2ccc(Cl)c(NS(=O)(=O)C(C)(C)C)c2)n1` [N-(2-chloro-5-((2-((2-methoxy-4-(4-methylpiperazin-1-yl)phenyl)amino)-5-methylpyrimidin-4-yl)amino)phenyl)-2-methylpropane-2-sulfonamide], in experiment [3], half-maximal inhibition (IC50) required 33.2 nM. As to `COc1cc(N2CCN(C)CC2)ccc1Nc1ncc(C)c(Nc2cccc(NS(=O)(=O)C(C)(C)C)c2)n1` [N-(3-((2-((2-methoxy-4-(4-methylpiperazin-1-yl)phenyl)amino)-5-methylpyrimidin-4-yl)amino)phenyl)-2-methylpropane-2-sulfonamide], the IC50 was 21.9 nM in experiment [4] and 34.5 nM in experiment [3]. `CN(C)CCOc1ccc(-c2oc3ncnc(NCC4SCCS4)c3c2-c2ccccc2)cc1` [Compound 1c]: the Ki in experiment [5] was 0.3 nM. In addition, the IC50 in experiment [6] was 5 nM.

One may read the IC50 as the point on the concentration scale where inhibition reaches its midpoint. As a reminder, the Ki is a dissociation constant, usually derived from enzyme kinetics or from competition with a known ligand.
